Measurements: article PMC9967275, “Screening the Pathogen Box to Discover and Characterize New Cruzain and TbrCatL Inhibitors” (Pathogens, 2023)
Like-named read-outs stand apart in the source and are kept apart here.

Key:
TbrCatL = target: T1, TbrCatL (Trypanosoma brucei rhodesiense, UniProt Q95PM0); assay: TbrCatL enzymatic inhibition assay (cleavage of fluorogenic substrate Z-FR-AMC); type: biochemical; conditions: for TbrCatL 0’ Inhibition / TbrCatL 10’ Inhibition: sheet "Screening results";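 on TbrCatL 0’ Inhibition: at 5 µM compound concentration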;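 on TbrCatL 10’ Inhibition: at 5 µM compound concentration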;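 on TbrCatL Inhibition 0’: at 5 µM compound concentration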;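 on TbrCatL Inhibition 10’: at 5 µM compound concentration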
T1 construct: Conor Caffrey (University of California San Diego)
T1 sequence (Q95PM0 entry or part of it): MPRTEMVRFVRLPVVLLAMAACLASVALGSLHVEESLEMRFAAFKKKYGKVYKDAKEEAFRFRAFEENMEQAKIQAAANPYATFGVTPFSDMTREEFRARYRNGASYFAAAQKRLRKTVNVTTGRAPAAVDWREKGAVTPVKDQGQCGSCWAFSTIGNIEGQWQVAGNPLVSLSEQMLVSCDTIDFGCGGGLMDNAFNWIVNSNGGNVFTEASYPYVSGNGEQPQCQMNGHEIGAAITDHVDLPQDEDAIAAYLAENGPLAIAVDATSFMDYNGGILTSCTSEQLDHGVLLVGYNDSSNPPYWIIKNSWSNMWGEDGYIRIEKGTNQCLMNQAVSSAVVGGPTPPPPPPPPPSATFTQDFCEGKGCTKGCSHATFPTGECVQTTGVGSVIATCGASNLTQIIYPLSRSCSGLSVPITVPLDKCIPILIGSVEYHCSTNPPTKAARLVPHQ
How it was run: (§1)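 Recombinant enzymes assayed by Z-Phe-Arg-AMC cleavage at 25 °C, fluorescence 340/440 nm over 5–7 min, with 10 min or no enzyme–compound preincubation.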

cruzain = cruzain (Trypanosoma cruzi, UniProt P25779); assay: biochemical;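 on Cruzain 0’ Inhibition: at 5 µM compound concentration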;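 on Cruzain 10’ Inhibition: at 5 µM compound concentration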;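 on Cruzain Inhibition 0’: at 5 µM compound concentration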;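 on Cruzain Inhibition 10’: at 5 µM compound concentration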
cruzain, sequence (P25779 123-337 limits assumed): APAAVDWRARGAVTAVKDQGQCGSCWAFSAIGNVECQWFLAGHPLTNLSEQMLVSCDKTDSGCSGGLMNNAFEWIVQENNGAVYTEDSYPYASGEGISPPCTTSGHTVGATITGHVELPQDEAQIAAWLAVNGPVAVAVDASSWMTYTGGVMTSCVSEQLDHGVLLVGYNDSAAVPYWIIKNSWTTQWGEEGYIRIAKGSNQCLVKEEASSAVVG
How it was run: as §1

[1] = 0’ (pre-incubation time), sheet "Screening results"
[2] = 10’ (pre-incubation time), sheet "Screening results"
[3] = 0’ (pre-incubation time), Pathogen Box screening results
[4] = 10’ (pre-incubation time), Pathogen Box screening results
[5] = 0’ (no pre-incubation), sheet Screening results
[6] = 10’ (pre-incubation), sheet Screening results
[7] = read-out: Inhibition at 5 µM (Mean ± SEM %) TbrCatL 0′
[8] = read-out: Inhibition at 5 µM (Mean ± SEM %) TbrCatL 10′ inc
[9] = read-out: TbrCatL 0’ Inhibition
[10] = read-out: TbrCatL 10’ Inhibition
[11] = read-out: Cruzain 0’ Inhibition, 0’ (pre-incubation time), sheet "Screening results"
[12] = read-out: Cruzain 10’ Inhibition, 10’ (pre-incubation time), sheet "Screening results"
[13] = read-out: Inhibition at 5 µM (Mean ± SEM %) Cruzain 0′, 5 µM, no pre-incubation, initial screening
[14] = read-out: Inhibition at 5 µM (Mean ± SEM %) Cruzain 10′ inc, 5 µM, 10′ pre-incubation, initial screening
[15] = read-out: Inhibition of cruzain or TbrCatL (either enzyme) in the initial screening, 5 µM, either cruzain or TbrCatL, with or without pre-incubation

| SMILES | TbrCatL 0’ Inhibition (TbrCatL; 0’ (pre-incubation time)) [%] | TbrCatL 10’ Inhibition (TbrCatL; 10’ (pre-incubation time)) [%] | Cruzain 0’ Inhibition (cruzain; [1]) [%] | Cruzain 10’ Inhibition (cruzain; [2]) [%] | TbrCatL Inhibition 0’ (TbrCatL; [5]) [%] | TbrCatL Inhibition 10’ (TbrCatL; [6]) [%] | Cruzain Inhibition 0’ (cruzain; [5]) [%] | Cruzain Inhibition 10’ (cruzain; [6]) [%] | other results |
| --- | --- | --- | --- | --- | --- | --- | --- | --- | --- |
| Cc1cc(NCCc2ccccc2)nc(NC(=N)Nc2ccc(Cl)cc2)n1 [MMV021660] | -3.6 | 7 | 11 | 14 |  |  |  |  |  |
| COc1cccc(-c2cc3c(Nc4cccnc4)nccc3[nH]2)c1 [MMV392832] |  |  |  |  |  |  |  |  | TbrCatL Inhibition 0’ (TbrCatL; [3]): 6%; TbrCatL Inhibition 10’ (TbrCatL; [4]): -6.4%; Cruzain Inhibition 0’ (cruzain; [3]): 8.5%; Cruzain Inhibition 10’ (cruzain; [4]): -3.6% |
| Cc1cc2nc(NC(=O)C(C)(C)C)nc(Cl)c2n1Cc1ccc(Cl)cc1 [MMV688704] |  |  |  |  | 16 | 16 | 11 | 10 |  |
| O=C(C1CCN(c2nnnn2-c2ccccc2)CC1)N1CCc2ccccc2C1 [MMV009135] | -1.2 | 6 | 0.1 | 0.1 |  |  |  |  |  |
| CC1(O)CC(c2nc(-c3ccc4ccc(-c5ccccc5)nc4c3)c3c(N)nccn23)C1 (stereo not drawn) [MMV676605] |  |  |  |  | 7 | -13 | 7.4 | -0.9 |  |
| FC(F)(F)c1cccc(-c2nc3c(NCc4ccncc4)nccc3[nH]2)c1 [MMV032967] | -7 | 1.3 | -4.6 | -2.4 |  |  |  |  |  |
| CC(C)(C)c1ccc(N[C@@H]2CCCC[C@H]2NC(=O)c2ccco2)cc1 [MMV675969] | -4.6 | -6 | -8 | -5 |  |  |  |  |  |
| CCN(CC)C(=O)N1CCN(C)CC1 [MMV002816] | -0.5 | 0.1 | 2.5 | 1.9 |  |  |  |  |  |
| C[C@H](C(N)=O)N1CCCC[C@@H]1c1ccc(OCc2cccc(F)c2)cc1 [MMV676270] |  |  |  |  |  |  |  |  | TbrCatL Inhibition 0’ (TbrCatL; [3]): 3.2%; TbrCatL Inhibition 10’ (TbrCatL; [4]): -0.6%; Cruzain Inhibition 0’ (cruzain; [3]): 4.6%; Cruzain Inhibition 10’ (cruzain; [4]): 9% |
| O=C(c1ccc(F)cc1)N(CCNc1ccccc1)c1ccccc1 [MMV676204] |  |  |  |  | 2.6 | -1.3 | 6 | 4.7 |  |
| O=C(Nc1ccc2c(c1)B(O)OC2)c1ccccc1C(F)(F)F [MMV652003] |  |  |  |  | -5.6 | -1.7 | 22 | 16 |  |
| Nc1nccc2ccc(-c3ccc4nccn4c3)cc12 [MMV023233] | 0.7 | 7 | 11 | 8 |  |  |  |  |  |
| CCc1ccc(C(NCc2nc(N)nc(N(C)C)n2)C(C)C)cc1 (stereo not drawn) [MMV1019989] | -6 | -5 | -10 | -7 |  |  |  |  |  |
| CC(=O)Nc1ccc(NC(=O)c2cc(-c3cc(Cl)ccc3O)n[nH]2)cc1 [MMV676380] |  |  |  |  | -5 | -3 | 0.6 | -0.9 |  |
| COc1ccc(-c2cnc3ccc(NCc4ccc(S(N)(=O)=O)cc4)nn23)cn1 [MMV010545] | -3.2 | 7 | 0.8 | 3.6 |  |  |  |  |  |
| Cc1ccccc1C(=O)N1NC(=Nc2ccccc2)SC1(C)C [MMV688771] | -5 | 0.3 | 29 | 8 |  |  |  |  |  |
| N=C(N)Nc1ccc(-c2ccc(-c3ccc(NC(=N)N)c(Cl)c3)o2)cc1Cl [MMV688271] |  |  |  |  |  |  |  |  | inhibition at 5 µM (TbrCatL; [7]): 53 ± 5%; inhibition at 5 µM (TbrCatL; [8]): 43 ± 1%; inhibition at 5 µM (TbrCatL; [9]): 53%; inhibition at 5 µM (TbrCatL; [10]): 43%; inhibition at 5 µM (cruzain; [11]): 83%; inhibition at 5 µM (cruzain; [12]): 50%; inhibition at 5 µM (cruzain; [13]): 83 ± 10%; inhibition at 5 µM (cruzain; [14]): 50 ± 4%; inhibition at 5 µM (cruzain; [15]): ≥ 60% |
| Cc1ccc2oc(-c3cc(NC(=O)Cc4ccccc4)ccc3Cl)nc2c1 [MMV676509] |  |  |  |  | 11 | 12 | 21 | 5 |  |
| CCCCc1ccc(NC(=O)Nc2ccc(O[C@H]3CCCC[C@@H]3N(C)c3ccccc3)c(F)c2)cc1 [MMV676063] | -17 | -15 | -13 | -3.3 |  |  |  |  |  |
| O=C1O[C@@H](COc2ccon2)CN1c1cc(F)c(C2=CCN(Cc3ccccc3)CC2)c(F)c1 [MMV687813] | 5.3 | -1 | 2.7 | 23 |  |  |  |  |  |

| SMILES | TbrCatL 0’ Inhibition (TbrCatL; 0’ (pre-incubation time)) [%] | TbrCatL 10’ Inhibition (TbrCatL; 10’ (pre-incubation time)) [%] | Cruzain 0’ Inhibition (cruzain; [1]) [%] | Cruzain 10’ Inhibition (cruzain; [2]) [%] | TbrCatL Inhibition 0’ (TbrCatL; [5]) [%] | TbrCatL Inhibition 10’ (TbrCatL; [6]) [%] | Cruzain Inhibition 0’ (cruzain; [5]) [%] | Cruzain Inhibition 10’ (cruzain; [6]) [%] | other results |
| --- | --- | --- | --- | --- | --- | --- | --- | --- | --- |
| COc1cc(C(F)(F)F)nc2ccc(C)c(N)c12 [MMV047015] | 15 | 4 | 1.1 | 5.5 |  |  |  |  |  |
| CC1COC(Cn2cncn2)(c2ccc(Oc3ccc(Cl)cc3)cc2Cl)O1 (stereo not drawn) [MMV688943] |  |  |  |  | 15 | 4 | 13 | 10 |  |
| O=C(NC1CCCCC1)N1CCN(Cc2ccc3c(c2)OCO3)CC1 [MMV676444] |  |  |  |  | 9 | 8 | 0.4 | 5.5 |  |
| Nc1ncc(-c2cn[nH]c2)cc1-c1nc2cc(Cl)cnc2[nH]1 [MMV023370] | 3.3 | -1.5 | -3.5 | 8 |  |  |  |  |  |
| COc1cc(NC(=O)Cc2nn(C)c(=O)c3ccccc23)ccc1Cl [MMV676053] | 1.2 | 1.5 | 0 | 1.7 |  |  |  |  |  |
| CC(=O)Oc1ccccc1C(=O)Nc1ncc([N+](=O)[O-])s1 [MMV688991] |  |  |  |  | 10 | 3.7 | 8 | 4 |  |
| CS(=O)(=O)c1ccc(C(=O)N(CC2CCCO2)c2nc3ccccc3s2)cc1[N+](=O)[O-] (stereo not drawn) [MMV688761] |  |  |  |  | -0.9 | 1.2 | -0.3 | 5.7 |  |
| CO/C=C(\C(=O)OC)c1ccccc1Oc1cc(Oc2ccccc2C#N)ncn1 [MMV021057] |  |  |  |  | 1.9 | 9 | 1.6 | 6.5 |  |
| O=C1Nc2ccc(Br)cc2C12NCCc1c2[nH]c2ccccc12 (stereo not drawn) [MMV006239] |  |  |  |  | 2.6 | 2.6 | 7.5 | 2.2 |  |
| NCC(=O)N1CCn2c(nc(-c3ccccc3)c2Nc2ccc3c(c2)OCO3)C1 [MMV011691] | -1.7 | 1.3 | 1.8 | -3.4 |  |  |  |  |  |
| CCOc1ccc2cc(-c3nn(C(C)(C)C)c(N)c3C(N)=O)cnc2c1 [MMV688853] |  |  |  |  | 7 | -4 | 5.4 | 4 |  |
| c1ccc(-c2nc(NC3CCCCC3)cc(C3CC3)n2)nc1 [MMV021013] |  |  |  |  |  |  |  |  | TbrCatL Inhibition 0’ (TbrCatL; [3]): -1.4%; TbrCatL Inhibition 10’ (TbrCatL; [4]): 19%; Cruzain Inhibition 0’ (cruzain; [3]): 9%; Cruzain Inhibition 10’ (cruzain; [4]): 16% |
| Cc1cc(OCC(=O)Nc2ccc(C(C)C)cc2)n(C)c(=O)c1C#N [MMV1198433] | -5 | -4.5 | -4.6 | -6 |  |  |  |  |  |
| Oc1c(I)cc(I)c2cccnc12 [MMV002817] |  |  |  |  | 0.5 | -24 | 0.2 | -16 |  |
| Nc1ncnc2c1ncn2[C@@H]1O[C@H](COS(=O)(=O)NC(=O)c2ccccc2O)[C@@H](O)[C@H]1O [MMV687700] | 3 | 17 | 3 | 10 |  |  |  |  |  |
| O=C(Nc1nc(-c2ccccn2)cs1)C1CC1c1ccccc1F (stereo not drawn) [MMV1028806] |  |  |  |  | 17 | 3.6 | 24 | 17 |  |
| COc1nc2ccc(Br)cc2cc1[C@@H](c1ccccc1)[C@@](O)(CCN(C)C)c1cccc2ccccc12 [MMV689758] |  |  |  |  | 9 | -1.4 | 19 | 10 |  |
| O=C(Nc1n[nH]c(=S)s1)c1cc(Br)ccc1Cl [MMV676492] |  |  |  |  |  |  |  |  | TbrCatL Inhibition 0’ (TbrCatL; [3]): -16%; TbrCatL Inhibition 10’ (TbrCatL; [4]): 35%; Cruzain Inhibition 0’ (cruzain; [3]): 10%; Cruzain Inhibition 10’ (cruzain; [4]): 27% |
| CCn1cnc2c(Nc3cc(F)cc(F)c3)nc(C#N)nc21 [MMV676881, reference compound] |  |  |  |  |  |  |  |  | Inhibition at 5 µM (Mean ± SEM %) TbrCatL 10′ inc (TbrCatL; 5 µM, 10′ pre-incubation, initial screening): fully inhibited; Inhibition at 5 µM (Mean ± SEM %) TbrCatL 0′ (TbrCatL; 5 µM, no pre-incubation, initial screening): fully inhibited; inhibition at 5 µM (TbrCatL; [7]): 100%; inhibition at 5 µM (TbrCatL; [8]): 100 ± 2%; inhibition at 5 µM (TbrCatL; [9]): 104%; inhibition at 5 µM (TbrCatL; [10]): 103%; inhibition at 5 µM (cruzain; [11]): 108%; inhibition at 5 µM (cruzain; [12]): 108%; inhibition at 5 µM (cruzain; [13]): 100 ± 2%; inhibition at 5 µM (cruzain; [14]): 100 ± 1%; inhibition at 5 µM (cruzain; [15]): ≥ 60% |
